Assay results reported in US20140179681A1, “METHODS AND COMPOSITIONS OF TARGETED DRUG DEVELOPMENT” (priority 2010, published 2014).
Where a name gives a salt, the structure may show the parent alone. Read-outs that look alike come from different tables or passages of the source.

Key:
[1] = biological target: T1, EGFR (Homo sapiens, UniProt P00533); assay: EGFR in-cell Western (ICW) screening protocol (EGFR inhibition assay); assay type: cell-based; set-up: ICW 1 / ICW 2 / ICW Avg: unit not given here; conditions: for ICW assay: Table 10; for ICW assay / ICW Screen: % Inhibition of EGF dependent EGFR phosphorylation in A431 cells, compound 125 μM in assay; for ICW Avg / ICW 1 / ICW 2: ICW assay; for ICW Avg: average of runs 1 and 2; for ICW 1: run 1; for ICW 2: run 2; for ICW Screen: Table 11
T1 construct: host or cells: A431
T1 sequence (P00533 25-1210): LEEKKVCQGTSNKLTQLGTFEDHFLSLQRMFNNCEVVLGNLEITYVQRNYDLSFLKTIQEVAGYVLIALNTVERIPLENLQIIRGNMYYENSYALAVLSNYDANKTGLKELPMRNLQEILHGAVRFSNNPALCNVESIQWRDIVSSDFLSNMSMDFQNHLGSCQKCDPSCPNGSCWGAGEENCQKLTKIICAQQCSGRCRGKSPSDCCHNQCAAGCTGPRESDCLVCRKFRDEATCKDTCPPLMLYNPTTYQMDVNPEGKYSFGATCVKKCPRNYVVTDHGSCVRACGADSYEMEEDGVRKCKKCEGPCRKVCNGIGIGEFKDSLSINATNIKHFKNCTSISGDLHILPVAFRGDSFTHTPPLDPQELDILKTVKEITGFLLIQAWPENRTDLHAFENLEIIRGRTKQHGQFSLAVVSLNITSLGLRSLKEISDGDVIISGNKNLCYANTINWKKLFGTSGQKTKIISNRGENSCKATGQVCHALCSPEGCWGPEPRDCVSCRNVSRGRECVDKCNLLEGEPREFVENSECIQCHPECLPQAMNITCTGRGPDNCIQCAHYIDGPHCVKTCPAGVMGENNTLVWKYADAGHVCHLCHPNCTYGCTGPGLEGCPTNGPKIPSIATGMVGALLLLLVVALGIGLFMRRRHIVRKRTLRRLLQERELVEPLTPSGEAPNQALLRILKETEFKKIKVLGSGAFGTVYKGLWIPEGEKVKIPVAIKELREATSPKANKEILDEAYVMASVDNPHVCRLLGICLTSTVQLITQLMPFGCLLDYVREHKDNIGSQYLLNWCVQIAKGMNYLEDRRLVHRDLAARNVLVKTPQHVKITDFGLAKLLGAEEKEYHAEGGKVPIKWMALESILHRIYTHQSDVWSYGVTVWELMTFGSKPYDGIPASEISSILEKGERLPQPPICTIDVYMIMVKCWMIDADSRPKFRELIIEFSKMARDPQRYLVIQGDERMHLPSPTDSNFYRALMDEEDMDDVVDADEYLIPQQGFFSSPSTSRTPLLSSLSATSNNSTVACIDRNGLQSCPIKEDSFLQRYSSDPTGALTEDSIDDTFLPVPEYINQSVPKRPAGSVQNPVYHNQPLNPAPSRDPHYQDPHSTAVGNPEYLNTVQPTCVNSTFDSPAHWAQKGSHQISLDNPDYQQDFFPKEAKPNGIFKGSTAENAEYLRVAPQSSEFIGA
Procedure, shortened: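 Serum-starved A431 cells (2 h) were pretreated with compound for 4 h at 37° C, then stimulated with EGF (10 ng/ml final, or 6.6 or 12.5 ng/ml in some runs) for 10 min. After formaldehyde fixation, phospho-EGFR (Tyr1173, or Tyr1045 in some runs) and total EGFR were detected by in-cell Western immunostaining.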

[2] = tested on: epithelial carcinoma A431 cell line; assay: MTT Cell Proliferation Assay, A431 cells; assay type: cell-based; conditions: for MTT Assay IC50(A431/MDBK): ratio in parentheses: ratio MDBK IC50 / A431 IC50 (selectivity); for MTT Screen, first value of cell: first value of 'a/b (c)'
Procedure, shortened: (§1)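 Viability was measured by mitochondrial MTT reduction after cells were exposed to compound for 3 days in reduced-serum medium. Inhibition was calculated per plate against 0.5% DMSO controls.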

[3] = tested on: MDBK line; assay: MTT Cell Proliferation Assay, MDBK cells; assay type: cell-based, bovine
Procedure, shortened: as §1

[4] = Homo sapiens, A-431, 72 h, Table 10, first of x/y(ratio): A431, three day treatment, unit not printed (doses in μM), read-out: MTT assay (first value)
[5] = Bos taurus, MDBK, 72 h, Table 10, second of x/y(ratio): MDBK, three day treatment, unit not printed (doses in μM), read-out: MTT assay (second value)
[6] = Homo sapiens, A-431, first value of 'a/b (c)', taken as A431 cells, read-out: MTT Screen, first value of cell
[7] = Homo sapiens, A-431, A431 cells, first value of cell, read-out: MTT Assay IC50(A431/MDBK): A431
[8] = Bos taurus, MDBK, MDBK cells, second value of cell, read-out: MTT Assay IC50(A431/MDBK): MDBK
[9] = Bos taurus, MDBK, second value of 'a/b (c)', taken as MDBK cells, read-out: MTT Screen, second value of cell
[10] = A431 cells, first value of cell, read-out: MTT Assay IC50(A431/MDBK): A431
[11] = MDBK cells, second value of cell, read-out: MTT Assay IC50(A431/MDBK): MDBK
[12] = Homo sapiens, A-431, 72 h, Table 11, first of x/y(ratio): A431, unit not printed (doses in μM), read-out: MTT Screen (first value)
[13] = Bos taurus, MDBK, Table 11, second of x/y(ratio): MDBK, unit not printed (doses in μM), read-out: MTT Screen (second value)

Structure (SMILES) | ICW Screen (ICW Inhibition) [1] | IC50 [2, 6] [µM] | ICW Avg [1] | ICW 1 [1] | ICW 2 [1] | MTT Assay IC50(A431/MDBK): ratio in parentheses [2] | IC50 [3, 9] [µM] | other results
CCC(C)c1ccc(NC(=S)Nc2ccc(S(=O)(=O)Nc3c(C)cc(C)cc3C)cc2)cc1 (stereo not shown) [AD4-12403] | – | – | – | – | – | – | – | ICW assay [1]: 50.7196; IC50 [2, 4]: 4.03 µM; IC50 [3, 5]: 5.3 µM
Cc1cc(C)cc(NC(=S)Nc2ccc(S(=O)(=O)Nc3cc(Cl)cc(Cl)c3)cc2)c1 [AD4-12461] | – | – | – | – | – | – | – | ICW assay [1]: 53.1391; IC50 [2, 4]: 4.06 µM; IC50 [3, 5]: 5.91 µM
COc1ccc(/C=C/C(=O)NC(=S)Nc2ccc(S(=O)(=O)Nc3nc(C)cc(C)n3)cc2)cc1OC [AD4-11883] | 83.13 | 19.5 | – | – | – | – | – | MTT Screen, second value of cell ([3]; second value of 'a/b (c)', taken as MDBK cells): non- conver- gent
Cc1ccc2nc(Nc3nc4c(c(-c5ccccc5)n3)CCCC4)nc(C)c2c1 [compound 12227] | – | – | 27.27 | 31.47 | 23.08 | 1.04 | – | IC50 [2, 7]: 16.4 µM; IC50 [3, 8]: 17.1 µM
Cc1cc(C)nc(NS(=O)(=O)c2ccc(NC(=S)NC(=O)/C=C/c3ccc(C(C)C)cc3)cc2)n1 [AD4-11642] | 40.922 | 9.89 | – | – | – | – | 9.46 | –
O=C(CCc1ccco1)NC(=S)Nc1ccc(S(=O)(=O)NCCc2ccccc2)cc1 [AD4-10624] | 49.448 | 25.6 | – | – | – | – | 16.8 | –
CCC(c1ccccc1)S(=O)(=O)c1ccc(NC(=S)NC(=O)C(C)C)cc1 (stereo not shown) [AD4-12029] | 30.376 | 25.3 | – | – | – | – | 51.1 | –
CCOc1ccc2nc(Nc3nc(C)cc(-c4ccccc4)n3)nc(C)c2c1 [12688 + TFA] | – | – | 36.40 | 45.86 | 26.95 | 0.71 | – | IC50 [2, 7]: 5.04 µM; IC50 [3, 8]: 3.58 µM
Cc1nc(Nc2nc(CCC(C)C)cc(=O)[nH]2)nc2ccccc12 [compound 11792] | – | – | 30.56 | 28.62 | 32.50 | 2.53 | – | IC50 [2, 7]: 5.36 µM; IC50 [3, 8]: 13.6 µM
Cc1ccc2c(C)nc(Nc3nc(C)c(CCC(C)C)c(=O)[nH]3)nc2c1 [11712 + TFA] | – | – | 39.53 | 32.96 | 46.11 | 0.92 | – | IC50 [2, 7]: 18.7 µM; IC50 [3, 8]: 17.3 µM
COc1ccc(NC(=S)Nc2ccc(S(=O)(=O)Nc3ccccc3C)cc2)cc1OC [AD4-12527] | – | – | – | – | – | – | – | ICW assay [1]: 31.9587; IC50 [2, 4]: 26.9 µM; IC50 [3, 5]: 20 µM
Cc1ccc2nc(Nc3nc(CSc4ncccn4)cc(=O)[nH]3)nc(C)c2c1 [compound 11751] | – | – | 25.51 | 25.87 | 25.14 | 0.64 | – | IC50 [2, 7]: 9.88 µM; IC50 [3, 8]: 6.31 µM
CCc1nnc(NS(=O)(=O)c2ccc(NC(=S)NC(=O)/C=C/c3ccc(OC)cc3)cc2)s1 [AD4-11637] | 33.491 | – | – | – | – | – | 17.8 | MTT Screen, first value of cell ([2]; taken as A431 cells): non- conver- gent
C=CCN(CC=C)S(=O)(=O)c1ccc(NC(=S)NC(=O)/C=C/c2cccs2)cc1 [AD4-11979] | 39.775 | 9.31 | – | – | – | – | 16.2 | –
Cc1ccc(NS(=O)(=O)c2ccc(NC(=S)NC(=O)C(C)(C)C)cc2)c(C)c1 [AD4-11968] | 45.095 | 6.49 | – | – | – | – | 6.29 | –
CCc1c(C)nc(Nc2nc(C)c3ccc(C)cc3n2)[nH]c1=O [12683 + TFA] | – | – | 40.88 | 54.37 | 27.38 | 0.71 | – | IC50 [2, 10]: 63.4 µM; IC50 [3, 11]: 45.3 µM
Cc1nc(Nc2nc(=O)cc(CSc3ccc(Cl)cc3)[nH]2)nc2ccccc12 [11583 + TFA] | – | – | 51.10 | 47.93 | 54.26 | 1.00 | – | IC50 [2, 10]: 47.3 µM; IC50 [3, 11]: 47.3 µM
CC(C)CC(=O)NC(=S)Nc1ccc(S(=O)(=O)NC2CCCCC2)cc1 [AD4-12041] | 43.515 | 6.61 | – | – | – | – | 14.3 | –
CCCc1cc(=O)[nH]c(Nc2nc(C)c3ccc(C)cc3n2)n1 [compound 12674] | – | – | 40.69 | 29.69 | 51.69 | 0.79 | – | IC50 [2, 7]: 10.7 µM; IC50 [3, 8]: 8.41 µM
O=C(NC(=S)Nc1ccc(S(=O)(=O)Nc2ccccc2)cc1)C1CC1 [AD4-12098] | 25.946 | 23.4 | – | – | – | – | 16.4 | –
COc1cc(NS(=O)(=O)c2ccc(NC(=S)NC(=O)/C=C/c3ccccc3)cc2)nc(OC)n1 [AD4-12122] | 35.068 | – | – | – | – | – | 40.3 | MTT Screen, first value of cell ([2]; taken as A431 cells): non- conver- gent
CCCc1c(C)nc(Nc2nc(C)c3cc(C)c(C)cc3n2)[nH]c1=O [12614 + TFA] | – | – | 27.21 | 20.34 | 34.09 | 0.39 | – | IC50 [2, 7]: 19.4 µM; IC50 [3, 8]: 7.56 µM
CC1(C)CC(=O)c2cnc(Nc3nc(-c4ccccc4)c4cc(Cl)ccc4n3)nc2C1 [11807 + TFA] | – | – | 25.37 | 30.73 | 20.02 | 3.35 | – | IC50 [2, 7]: 5.31 µM; IC50 [3, 8]: 17.8 µM
Cc1cc(C)c(NS(=O)(=O)c2ccc(NC(=S)Nc3ccc(S(N)(=O)=O)cc3)cc2)c(C)c1 [AD4-12250] | – | – | – | – | – | – | – | ICW assay [1]: 29.3683; IC50 [2, 4]: 12.7 µM; IC50 [3, 5]: 11.6 µM
Cc1cc(C)c2c(CN3CCN(Cc4ccc5c(c4)OCO5)CC3)cc(=O)oc2c1 [AD4-10182] | – | – | – | – | – | – | – | ICW Screen [1]: 39.51; IC50 [2, 12]: 6.78 µM; IC50 ([2]; Homo sapiens, A-431, Table 11, first of x/y(ratio): A431, unit inferred, read-out: MTT Follow-up (first value)): 3.75 µM; IC50 [3, 13]: 43.3 µM; MTT Follow-up (second value) ([3]; Table 11, second of x/y(ratio): MDBK, unit not given): non- convergent
CCc1cc2c(CN3CCN(Cc4ccccc4)CC3)cc(=O)oc2cc1O [AD4-10631] | – | – | – | – | – | – | – | ICW Screen [1]: 104.48; IC50 ([2]; Table 11, first of x/y(ratio): A431, unit not printed (doses in μM), read-out: MTT Screen (first value)): 35.6 µM; IC50 ([3]; Table 11, second of x/y(ratio): MDBK, unit not printed (doses in μM), read-out: MTT Screen (second value)): 37.5 µM
O=c1cc(CN2CCN(Cc3ccccc3)CC2)c2cc(Cl)c(O)cc2o1 [AD4-10180] | – | – | – | – | – | – | – | ICW Screen [1]: 32.1; IC50 [2, 12]: 16.7 µM; IC50 [3, 13]: 36.3 µM
CCN(CC)S(=O)(=O)c1ccc(NC(=S)NC(=O)CC(C)C)cc1 [AD4-12049] | 36.966 | 32.3 | – | – | – | – | 12 | –
Cc1ccc2[nH]c(Nc3nc(C)cc(-c4ccccc4)n3)nc(=O)c2c1 [compound 11315] | – | – | 49.58 | 48.33 | 50.82 | very selective | – | MTT Assay, MDBK percent at a single concentration ([3]; MDBK, at 100 μM): 20%
